ChEMBL document CHEMBL1152010, “Synthesis of new amide-linked N-hydroxyurea 5-lipoxygenase inhibitors by an intramolecular oxygen to nitrogen acyl transfer” (Bioorg Med Chem Lett, 1993)
pIC50: −log10 of the molar value.

How the values were obtained:
[1] = Half life after oral dosing in rats; format: ADME, organism-based; conditions: rat, in vivo
[2] = species on record: Homo sapiens; test: Tested for the inhibition of leukotriene biosynthesis in human whole blood; format: functional

| half-life [1] [h] | pIC50 [2] | SMILES |
| --- | --- | --- |
| 3.6 | 6.64 | NC(=O)N(O)CCNC(=O)c1cccc(Oc2ccccc2)c1 |
| 1.5 | 7.05 | NC(=O)N(O)C/C=C/c1cccc(Oc2ccccc2)c1 |
